From patent US20210177869A1, “METHODS AND COMBINATIONS FOR MODULATING TOLERANCE TO OPIATES, OPIOIDS OR OPIOID ANALGESICS AND TREATING ACUTE AND CHRONIC PAIN” (CHINA MEDICAL UNIVERSITY, priority 2018, published 2021)

How the values were obtained:
Assay type in all cases: in vivo
mice [1] = test: Opioid tolerance, morphine percent maximal possible effect (% MPE) over 7 days; conditions: WT mice; for development of tolerance, in comparison to the morphine alone group / number of days of morphine-induced analgesic effect, in comparison to the morphine alone group: co-treatment with morphine 20 mg/kg/day, SSZ 60 mg/kg/day or capsazepine 10 mg/kg/day, twice daily 7 days
Procedure: To test whether system xc^− plays a role in opioid tolerance, WT and xCT KO mice were injected intraperitoneally with morphine twice daily and tested on 7 days continuously for determination of their respective morphine percent maximal possible effect (% MPE). Analgesic effect was expressed as % MPE, where % MPE=(test−baseline latency)/(cutoff−baseline)×100. […] Next, the WT mice were received the co-administration of system xc^− inhibitor, SSZ or capsazepine, and morphine twice daily for one-week observation.

mice [2] = test: Thermal hyperalgesia, hot plate test; conditions: for latency of first sign of pain in the hot-plate test: WT and xCT KO mice (both genotypes), ip morphine 10 mg/kg/day or methadone 4 mg/kg/day for 7 days; for analgesic effect in xCT KO mice compared to WT mice: hot plate and von Frey tests, morphine 10 mg/kg/day or methadone 4 mg/kg/day for 7 days; for latencies of the first sign of pain in the hot-plate test, compared to vehicle: wild-type mice, SSZ 30 mg/kg/day, morphine 10 mg/kg/day, methadone 5 mg/kg/day or combinations for 8 days
Procedure: (§1) The thermal hyperalgesia was evaluated by placing the mice in a 1000 ml beaker and on the 56±2° C. hot plate with the maximum of 35 second to prevent tissue damage. The time is recorded when the mice jumps on to the edge of the beaker, the value is considered as the withdrawal threshold. A customized transparent acrylic chamber with the size of 20×20×20 cm and 5 mm thick acrylic with 2 mm diameter holes throughout the entire platform is used to determine the mechanical allodynia and thermal hyperalgesia. Mice were placed in the chamber to evaluate the mechanical allodynia by applying a 0.6 g pressure von Frey hair (Touch-Test Sensory Evaluator, North Coast Medical, Inc) to the hind paws of the mice for five times with a five second interval. If the mice hind paw is withdrawn from the platform over three times, the pressure of the von Frey hair will be recorded and regarded as the withdrawal threshold.

mice [3] = test: Opioid-induced constipation, fecal collection and stool weight; conditions: wild-type mice; SSZ 30 mg/kg, morphine 10 mg/kg or combination, ip, 7 days
Procedure: Fecal collections and the stool weighed were recorded before and after morphine and/or SSZ administration. The fecal was collected every two days.
Opioid-induced constipation is a side effect for using opioid pain relief medication.

mice [4] = test: Mechanical allodynia, von Frey filament test; conditions: for withdraw threshold in von Frey filament test: WT and xCT KO mice (both genotypes), ip morphine 10 mg/kg/day or methadone 4 mg/kg/day for 7 days; for withdraw threshold in von Frey filament test, compared to vehicle: wild-type mice, SSZ 30 mg/kg/day, morphine 10 mg/kg/day, methadone 5 mg/kg/day or combinations for 8 days
Procedure: as §1

morphine-dependent mice = test: Naloxone-precipitated withdrawal jumping in mice with chronic morphine dependence; conditions: for naloxone-induced jumping behavior: naloxone 5 mg/kg + SSZ 30 mg/kg or capsazepine 5 mg/kg
Procedure: Chronic morphine dependence was induced by repeated injections for four consecutive days with an escalating dose schedule. Mice received morphine twice daily (morning and afternoon) for 4 days (day 1: 12 mg/kg and 25 mg/kg; day 2: 25 mg/kg and 50 mg/kg; day 3: 50 mg/kg and 75 mg/kg; day 4: 75 mg/kg and 100 mg/kg). On the testing day (day 5), a final morphine dose (50 mg/kg) was administered before exam.
A single dose of naloxone (5 mg/kg) was administered to all mice 60 mins after the final morphine dose. Immediately, following with naloxone injection, animals were placed into individual Plexiglas observation cylinders. Withdrawal jumping response symptoms were recorded and the frequency of jumps for each mouse was summed over one hour.
It was first determined whether system xc^− contributes to opioid dependence. WT and xCT KO mice were received the repeated injections for four consecutive days with an escalating dose schedule for the induction of chronic morphine dependence. Mice received morphine twice daily (morning and afternoon) for 4 days (day 1: 12 mg/kg and 25 mg/kg; day 2: 25 mg/kg and 50 mg/kg; day 3: 50 mg/kg and 75 mg/kg; day 4: 75 mg/kg and 100 mg/kg). On the testing day (day 5), a final morphine dose (50 mg/kg) was administered before naloxone-induced acute withdrawal syndromes. […] To observe the effect of system xc^− inhibits in opioid withdrawal, mice with chronic morphine dependence were randomly divided into the following groups (sample size N=6 in each group): group 1: control mice without any treatment; group 2: morphine-dependent mice with vehicle treatment; group 3: morphine-dependent mice with naloxone (5 mg/kg) treatment; group 4: morphine-dependent mice with naloxone (5 mg/kg)+methadone (10 mg/kg) treatment; group 5: morphine-dependent mice with naloxone (5 mg/kg)+SSZ (30 mg/kg) treatment; and group 6: morphine-dependent mice with naloxone (5 mg/kg)+capsazepine (5 mg/kg).

Structure (SMILES) | opioid tolerance (% MPE) (mice [1]; morphine 20 mg/kg/day ip twice daily, 7 days) | latency of first sign of pain in the hot-plate test (mice [2]) | analgesic effect in xCT KO mice compared to WT mice (mice [2]) | latencies of the first sign of pain in the hot-plate test, compared to vehicle (mice [2]) | opioid-induced constipation / defecation (stool weight) (mice [3]) | withdraw threshold in von Frey filament test (mice [4]) | withdraw threshold in von Frey filament test, compared to vehicle (mice [4]) | development of tolerance, in comparison to the morphine alone group (mice [1]) | number of days of morphine-induced analgesic effect, in comparison to the morphine alone group (mice [1]) | naloxone-induced jumping behavior (morphine-dependent mice) | jumping behavior (withdrawal) (morphine-dependent mice; naloxone 5 mg/kg, observed one hour)
CN1CC[C@]23c4c5ccc(O)c4O[C@H]2[C@@H](O)C=C[C@H]3[C@H]1C5 [morphine] | significant opioid tolerance on day 3 | significantly increased | higher than that in WT mice | more than those in vehicle-treated mice | developed the opioid-induced constipation | significantly increased | more than those in vehicle-treated mice |  |  |  | 
O=C(O)c1cc(/N=N/c2ccc(S(=O)(=O)Nc3ccccn3)cc2)ccc1O [SSZ, sulfasalazine] |  |  |  | more than those in vehicle-treated mice | didn't decreased or increased defecation |  | more than those in vehicle-treated mice | significantly attenuated the development of tolerance | prolong the number of days of morphine-induced analgesic effect | inhibited naloxone-induced jumping behavior | 
Oc1cc2c(cc1O)CN(C(=S)NCCc1ccc(Cl)cc1)CCC2 [capsazepine] |  |  |  |  |  |  |  | significantly attenuated the development of tolerance | prolong the number of days of morphine-induced analgesic effect | inhibited naloxone-induced jumping behavior | 
CCC(=O)C(CC(C)N(C)C)(c1ccccc1)c1ccccc1 (stereo not shown) [methadone] |  | significantly increased | higher than that in WT mice | more than those in vehicle-treated mice |  | significantly increased | more than those in vehicle-treated mice |  |  |  | 
C=CCN1CC[C@]23c4c5ccc(O)c4O[C@H]2C(=O)CC[C@@]3(O)[C@H]1C5 [naloxone] |  |  |  |  |  |  |  |  |  |  | significant jumping behavior compared to other groups
